Read-outs that look alike come from different tables or passages of the source.
Key:
[1] = target: T1, G-actin (rabbit skeletal muscle actin) (Oryctolagus cuniculus, UniProt P68135); assay: differential scanning fluorimetry (SYPRO orange) with Kd; also pyrene-actin polymerization inhibition; format: binding
T1 construct: gene ACTA1

[2] = target: T1, G-actin (rabbit skeletal muscle actin); assay: pyrene-actin polymerization assay, […] (V50 […] vs control […]); format: biochemical
[3] = target: T1, G-actin (rabbit skeletal muscle actin); assay: as above; format: biochemical; remark: listed apart in the source

`CC(C)(O)/C=C/C(=O)[C@](C)(O)[C@H]1[C@H](O)C[C@@]2(C)[C@@H]3CC=C4[C@@H](C=C(O)C(=O)C4(C)C)[C@]3(C)C(=O)C[C@]12C` [CuI, Cucurbitacin I] gave a Kd [1] of 30 ± 2.5 nM.
In the case of `C=C1[C@@H](C)[C@H]2[C@H](Cc3ccccc3)NC(=O)[C@]23[C@H](OC(C)=O)/C=C/[C@@](C)(O)C(=O)[C@@H](C)C/C=C/[C@H]3[C@@H]1O` [Cytochalasin D], the “V 50” value [2] is reported as 77.59 ± 7776.
In the case of `C/C1=C\[C@H](C)C[C@H](C)OC(=O)C[C@H](c2ccc(O)cc2)NC(=O)[C@@H](Cc2c(Br)[nH]c3ccccc23)N(C)C(=O)[C@H](C)NC(=O)[C@@H](C)C1` [Jasplakinolide], the “V 50” value [3] is reported as 54.7 ± 5114.
